Data from patent US8846653B2, “Delta-tocotrienol treatment and prevention of pancreatic cancer” (University of South Florida, priority 2006, dated 2014).

Key:
p-AKT = assay: Immunoblot for p-AKT and AKT; format: cell-based, human; conditions: MIA PaCa2 and SW1990, 20 μM, 24 and 48 hours
Procedure: (§1) The Ras effector pathways Raf-MEK-ERK and PI3 kinase-AKT are important for cell proliferation and survival, respectively. Pancreatic cancer cell lines (MIA PaCa2, SW1990, BXPC3) and HPDE 6C7 cells were treated with 8-tocotrienol (20 μM) and cell lysates were collected and prepared at progressive time intervals as described above. Proteins from lysates were run by SDS PAGE and immunoblotted with the following antibodies: Ras, p-cRaf (ser 338), p-MEK1/2, MEK1/2, pERK 44/42, ERK 44/42 (Cell Signaling) and c-Raf (BD Transduction Laboratories). […] The MIA PaCa2 and SW1990 cells were then tested for AKT inhibition. The cells were treated with δ-tocotrienol (20 μM) for 24 and 48 hours and cell lysates were run by SDS-PAGE and immunoblotted for p-AKT and AKT (Cell Signaling). […] Taken together, the inhibition of downstream effectors of oncogenic Ras signaling by δ-tocotrienol without an effect on Ras protein levels may indicate a negative regulatory role of 8-tocotrienol on the function of oncogenic Ras. The pancreatic ductal epithelial cell proliferative inhibition by δ-tocotrienol was tested to see if it occurs through blocking aberrant signal transduction cascades. […]

MIA PaCa2 cells = assay: MTT cell viability, δ-tocotrienol, fluorouracil or combination; format: cell-based, human
Procedure: FIG. 39 is a graph MIA PaCa2 pancreatic cancer cells (3×10^3) treated with indicated concentrations of delta-tocotrienol, fluorouracil (5FU), or a combination of the indicated delta-tocotrienol and 5FU.
The MiaPaCa 2 cells were plated as above into 96 well plates and treated the following day with increasing concentrations of δ-tocotrienol, fluorouracil (5FU), or a combination of δ-tocotrienol and fluorouracil. The cells were collected and analyzed for cell viability using an MTT assay. […] MIA PaCa2 cells (3×10^3) were cultured as described in the Examples above, in 96-well plates and treated the following day with vehicle, δ-tocotrienol, fluorouracil, or a combination of δ-tocotrienol and fluorouracil.

[1] = test system: Caspase 8, Caspase 3, PARP, cytochrome C, caspase 9; assay: Immunoblot for biomarkers of apoptosis (caspase cascade); format: cell-based, human; conditions: MIA PaCa2, 20 μM
Procedure: An aliquot of the cells were collected and cells lysed. The lysate was then run on a Western blot and cleavage of caspase 8, caspase 3, and PARP detected.
In addition to its chemopreventive effects, δ-Tocotrienol induces apoptosis in pancreatic cancer. MIA PaCa2 cells were treated with either δ-tocotrienol or vehicle for 24 hours. Cells were collected and stained with annexin V-FITC and analyzed by flow cytometry for apoptosis. […] MIA PaCa2 cells and HPDE 6C7 cells were treated with vehicle or δ-tocotrienol (20 μM) for 24 hours, then harvested and stained for TUNEL. […] Cell lysates were prepared from MIA PaCa2 cells treated with 8-tocotrienol (20 μM) at progressive time intervals and proteins from lysates were run by SDS PAGE and immunoblotted for biomarkers of apoptosis.

[2] = test system: pancreatic cancer metastasis; assay: Pancreatic cancer metastasis in vivo (luminescence); design: species or system mouse
Source text: Images show comparison of vehicle vs. 100 MPK
The apoptotic effect of delta-tocotrienol was selective for neoplastic cells as normal pancreatic cells and in vitro immortalized human pancreatic ductal epithelial cells were not sensitive to delta-tocotrienol.

MIA PaCa2 xenografts = assay: MIA PaCa2 luciferase xenograft tumor growth in nude mice; format: in vivo; conditions: 100 mg/kg/day by gavage
Procedure: (§2) Rate of growth by day 10 of treatment is less in the tocotrienol treatment group. Stable transfectants of MIA PaCa2 cells with luciferase were injected subcutaneously into nude mice. Tumor volumes were measured every 2 days with calibers and the rate of growth was determined weekly by measuring tumor luminescence using the IVIS 100 Xenogen system. Tumors of similar volume (100-150 mm^3) and rate of growth based on luminescence were randomized to receive either vehicle or δ-tocotrienol (100 mg/kg/day) by gavage for 20 days.
as §2, with “Stable” for “Rate of growth by day 10 of treatment is less in the tocotrienol treatment group. Stable”, “mice. Mice were treated with either rice bran oil (vehicle) or δ-tocotrienol (100 mg/kg/day) via gavage five times per week.” for “mice.”

[3] = Plasma and mouse tissue levels by HPLC-UV; format: in vivo
Source text: FIG. 52 is a graph showing tissue levels of delta-tocotrienol. *p=0.0044; # p=0.0034; † p=0.0181.

MiaPaCa-2 cells = assay: Annexin V-FITC staining, flow cytometry for apoptosis; format: cell-based, human; conditions: MiaPaCa-2, varying concentrations, 24 hours
Procedure: FIG. 3 is a graph wherein MIA PaCa-2 pancreatic cancer cells were treated with in varying concentrations of δ-tocotrienol or vehicle for 24 hours. Cells were collected and stained with Annexin V-FITC and analyzed by flow cytometry for apoptosis.
(§3) MiaPaCa2 and HPDE 6C7 cells were cultured, as discussed above, and treated with δ-tocotrienol or vehicle. […] MiaPaCa-2, BxPc-3, and SW1990 pancreatic cancer cells were treated with in varying concentrations of δ-tocotrienol or vehicle for 24 hours. The cells were then harvested for annexin V-FITC staining and analyzed by flow cytometry.

SW1990 cells = assay: as above; format: cell-based, human; conditions: SW1990, varying concentrations, 24 hours
Procedure: FIG. 5 is a graph wherein SW1990 pancreatic cancer cells were treated with in varying concentrations of δ-tocotrienol or vehicle for 24 hours. Cells were collected and stained with Annexin V-FITC and analyzed by flow cytometry for apoptosis.
as §3

p-cRaf, p-MEK, and p-ERK = assay: Immunoblot of downstream phosphorylated targets of oncogenic Ras; format: cell-based, human; conditions: pancreatic cancer cell lines, 20 μM
Procedure: as §1

With `CC(C)=CCC/C(C)=C/CC/C(C)=C/CC[C@]1(C)CCc2cc(O)cc(C)c2O1` [T3 delta, delta tocotrienol] the p-AKT protein levels (p-AKT) was “decrease in p-AKT protein levels”, the “concentration at which the effect became significant vs vehicle” value (MIA PaCa2 cells) was 50 µM and the IC50 (MIA PaCa2 cells; at 24 hours) was 50 µM. The “mitochondrial pro-apoptotic proteins (cytochrome C release, cleavage of caspase 9)” value [1] was “no significant effect”, the “caspase cascade: cleavage of caspase 8, caspase 3, PARP” value ([1]; time dependent) was “activation of the caspase cascade” and the “tumor response at the highest dose” value ([2]; highest dose, compared to vehicle/PBS) was “tumor regression”. For the same compound, the pancreatic cancer metastasis ([2]; in vivo, vs vehicle/PBS) was “inhibits pancreatic cancer metastasis”, the “rate of growth by tumor luminescence” value (MIA PaCa2 xenografts; day 10 of treatment) was “significantly less” and the “reduction in tumor growth” value (MIA PaCa2 xenografts; nude mice, vs vehicle) was 50%. The plasma level ([3]; mouse plasma) was “detectable in plasma”, the “localization in the pancreas compared to liver and pancreatic tumor levels (factor)” value ([3]; mouse tissue) was 10 and the “induction of apoptosis (annexin V-FITC)” value (MiaPaCa-2 cells) was “dose dependent induction of apoptosis”. The “induction of apoptosis (annexin V-FITC)” value (SW1990 cells) was “dose dependent induction of apoptosis” and the “downstream phosphorylated targets of oncogenic Ras p-cRaf, p-MEK, p-ERK” value (p-cRaf, p-MEK, and p-ERK) was “selectively inhibited”.
